Reference: patent US8900880B2, “Viral citrullinated peptides and uses thereof” (Toscana Biomarkers S.R.L., priority 2009, dated 2014)
“Also recorded” adds a separate entry of the source.

Assays:
[1] = tested on: autoantibodies in RA sera; assay: 79 RA patients tested for anti-CCP2, anti-CCP3, anti-VCP1 and anti-VCP2 (FIG. 1); format: binding, human
Description: FIG. 1. […] The presence of different populations of autoantibodies is depicted in the block diagram. Number of RA sera positive (+) or negative (−) to anti-CCP2, anti-CCP3, anti-VCP1 [peptide of formula (VI)], and anti-VCP2 [peptide of formula (V)] are shown above the diagram.
Noteworthy, 7/79 (9%) anti-CCP2 and anti-CCP3 negative sera are positive to the peptide of formula (VI); 2/79 (3%) anti-CCP2 and anti-CCP3 negative sera are positive to peptide of formula (V); 1/79 (1%) anti-CCP2 and anti-CCP3 negative serum is positive to both peptides of formula (V) and formula (VI). Thus, formula (V) and (VI) allow to detect antibodies in a subgroup of anti-CCP negative RA patients (FIG. 1).

[2] = tested on: anti-citrullinated peptides/proteins antibodies (ACPA) in serum; conditions: 206 disease controls
Protocol: The MAP of the citrullinated peptide antigens according to the invention was diluted to a concentration of 20 μg/ml in phosphate buffered saline (PBS) and loaded into the wells of a polystyrene micro-titration plate (50 μl/well). […] Upon completion of the coating period, the wells containing the antigen, plus an equal number of wells which were used as controls, were treated for 1 hour at room temperature (RT) with 3% bovine serum albumin (BSA) in PBS. The patients' serum samples (diluted 1:200 in a buffer constituted by 1% BSA, 0.05% Tween X-100 in PBS) were then loaded onto the plate (50 μl/well) and left to incubate for 3 hours at RT. After the incubation period, one washing was performed with 1% PBS Tween X-100 and two washings were performed with PBS (150 μl/well). […] Upon completion of the incubation, after three washings as described above, the alkaline phosphatase substrate (p-nitrophenyl phosphate) was added to the wells and, in the presence of the enzyme, it produced a yellow product measurable by spectrophotometric techniques at a wavelength of 405 nm; its quantity was proportional to the titre of antibodies bound. The results of the test were expressed as the percentage of positivity, calculated by dividing the absorbance of each serum sample by the absorbance of a positive serum sample the value of which was set arbitrarily at 100.

[3] = tested on: anti-CP antibodies (IgG, IgM, IgA) in patients' serum samples
Protocol: The MAP of the citrullinated peptide antigens according to the invention was diluted to a concentration of 20 μg/ml in phosphate buffered saline (PBS) and loaded into the wells of a polystyrene micro-titration plate (50 μl/well). […] Upon completion of the coating period, the wells containing the antigen, plus an equal number of wells which were used as controls, were treated for 1 hour at room temperature (RT) with 3% bovine serum albumin (BSA) in PBS. The patients' serum samples (diluted 1:200 in a buffer constituted by 1% BSA, 0.05% Tween X-100 in PBS) were then loaded onto the plate (50 μl/well) and left to incubate for 3 hours at RT. After the incubation period, one washing was performed with 1% PBS Tween X-100 and two washings were performed with PBS (150 μl/well). […] The antibody (50 μl/well) was then incubated for 3 hours at RT with agitation. Upon completion of the incubation, after three washings as described above, the alkaline phosphatase substrate (p-nitrophenyl phosphate) was added to the wells and, in the presence of the enzyme, it produced a yellow product measurable by spectrophotometric techniques at a wavelength of 405 nm; its quantity was proportional to the titre of antibodies bound. The results of the test were expressed as the percentage of positivity, calculated by dividing the absorbance of each serum sample by the absorbance of a positive serum sample the value of which was set arbitrarily at 100.
Serum samples of 104 patients suffering from RA, 97 normal healthy subjects (NHS), and 194 disease controls (systemic lupus erythematosus, systemic scleroderma, Sjogren syndrome, mixed cryoglobulinemia, psoriasic arthritis, ankylosing spondilytis, rheumatic polymialgia and infectious mononucleosis) were tested by this method using the peptide of formula (V).

[4] = tested on: anti-VCP2 antibodies (IgG) from RA sera; assay: ELISA of affinity-purified anti-VCP2 antibodies from RA sera (Example 5); format: binding, human; conditions: four preparations from 4 different RA sera
Protocol: FIG. 4. Isolation of anti-VCP2 antibodies from RA sera was performed according to the method described in example 4.
A citrullinated peptide or MAP according to the present invention was conjugated to CNBr-activated sepharose according to standard procedures known by one skilled in the art. Total immunoglobulins from sera containing anti-CP antibodies were precipitated with 50% saturated ammonium sulfate; the precipitates were dissolved in phosphate buffer (pH 7.4) and dialyzed overnight against PBS. Enriched immunoglobulin preparations were applied to the column, and the flowthrough was collected for subsequent analysis. The column was extensively washed with 20 mM Na2HPO4, 150 mM NaCl (pH 7.2), and the antibodies bound to the column were eluted by 0.1 M glycine buffer (pH 2.8) (0.5 ml/fraction), immediately neutralized with 50 μl Tris 1M (pH 8.0), and dialyzed overnight against PBS. The anti-CP antibody content in the eluates and flowthrough was tested by ELISA.

[5] = tested on: anti-CP IgG antibodies in RA patients' serum; conditions: cut-off 97.5th percentile of normal controls
Protocol: The ability to recognize specific antibodies in RA patients by MAP of formula (V), in comparison with the MAP of formula (VI) was evaluated by ELISA.
MAP of formula (V) and MAP of formula (VI) were diluted respectively to a concentration of 20 μg/ml and 5 μg/ml in PBS, loaded into the wells of a polystyrene micro-titration plate (50 μl/well), and left overnight at +4° C. Upon completion of the coating period, the wells were treated for 1 hour at RT with 3% BSA in PBS. The patients' serum samples (diluted 1:200 in a buffer constituted by 1% BSA, 0.05% Tween X-100 in PBS) were then loaded onto the plate (50 μl/well) and left to incubate for 3 hours at RT. After the incubation period, one washing was performed with 1% PBS Tween X-100 and two washings were performed with PBS (150 μl/well). An anti human-IgG antibody conjugated to the enzyme alkaline phosphatase (50 μl/well), diluted 1:3000 in 1% PBS BSA, 0.05% Tween X-100, was incubated for 3 hours at RT with stirring. Upon completion of the incubation, after three washings as described above, p-nitrophenyl phosphate was added to the wells and the absorbance at a wavelength of 405 nm was determined. The results of the test were expressed as the percentage of positivity, calculated by dividing the absorbance of each serum sample by the absorbance of a positive serum sample the value of which was set arbitrarily at 100.
Serum samples of 100 patients suffering from RA were tested by this method.

[6] = tested on: IgG antibodies in RA and NHS sera; assay: ELISA with differently citrullinated EBNA-2(338-358) peptides (Example 6); format: binding, human
Description: The role of the number and of the position of citrullines inside EBNA-2(338-358) sequence in the detection of specific antibodies in RA sera was investigated by means of differently citrullinated peptides (Table 1).
It is believed that these two positions relate to two different antigenic regions.

Substance	RA sera containing antibodies reacting with either one of the two MAP ([1]; comparison of MAP of formula (V) and MAP of formula (VI)) [%]	anti-CCP2 and anti-CCP3 negative sera positive to the peptide ([1]; of 79 RA patients) [%]	anti-CCP2 and anti-CCP3 negative serum positive to both peptides ([1]; of 79 RA patients (1/79)) [%]	positive RA sera ([1]; population of 79 RA patients) [%]	specificity in detecting ACPA in RA patients ([2]; 100 RA, 100 NHS)	antibodies detected in disease controls ([2]; in particular IM and SLE)	anti-CP antibodies found in normal healthy subjects and disease controls ([3]; 97 NHS and 194 disease controls)	anti-CP IgA antibodies found in RA serum samples ([3]; 104 RA patients (41/104), cut-off 97.5th percentile of normal controls) [%]	anti-CP IgM antibodies found in RA serum samples ([3]; 104 RA patients (48/104), cut-off 97.5th percentile of normal controls) [%]	anti-CP IgG antibodies found in RA serum samples ([3]; 104 RA patients (67/104), cut-off 97.5th percentile of normal controls) [%]	reactivity of purified anti-VCP2 IgG with the antigen [4]	anti-CP MAP antibodies found in the RA cohort ([5]; 100 RA patients, IgG) [%]	specificity [5] [%]	NHS positive sera ([6]; 23 normal healthy subjects, positive = greater than 97.5th percentile of normal control group)	RA positive sera ([6]; 24 RA patients, positive = greater than 97.5th percentile of normal control group)	reactivity with RA sera (in words) ([6]; 24 RA sera, relevant = more than 25% positive)
(G Q S Cit G Q S Cit G Cit G Cit G Cit G Cit G Cit G K G)4 K2 K beta-Alanine [VCP2]	15	3	1	52	high specificity	no antibodies were detected	less than 5%	40	46	64	very high reactivity	64	95	–	–	–
GQSRGQSRGRGRGRGRGRGKG [EBNA2(338-358), reference compound]	–	–	–	–	–	–	–	–	–	–	no binding	–	–	0/23	3/24	does not react with RA sera; also recorded: does not recognize IgG antibodies in a relevant number of RA sera
